# From patent publication US20240299393A1, “SMALL MOLECULE DISRUPTORS OF PROTEIN INTERACTIONS IN HISTONE DEACETYLASE COMPLEXES” (Dana-Farber Cancer Institute, Inc., priority 2021, published 2024)
# System: mouse frontal cortex transcriptome
# Assay: RNA-seq of mouse frontal cortex after chronic treatment
# Format: in vivo
# Experimental: For the pilot RT-qPCR experiment, in addition to the vehicle condition (ethanol 100%/kolliphor/saline 0.9% in a proportion of 1:1:14.4; for the 50 mg/kg dose, 14 μL NaOH 1M were also added), three doses (mg/kg) of E6R were tested: 5, 15, and 50, with 4 (vehicle) or 3 (E6R) animals per group. A dose of 50 mg/kg was picked to conduct further experiments. For the RNA-Seq experiment, E6R was dissolved in a vehicle solution containing saline 55% v/v, DMSO 34% v/v, ethanol 5% v/v, kolliphor EL (Sigma-Aldrich, MO, USA) 5% v/v, NaOH 1M 1% v/v. The vehicle group received the same solution. Animals were injected daily by intraperitoneal (I.P.) injection with 5 μL/g of the solution (50 mg/kg of the drug or vehicle) at 11 am for 10 days. Animal wellness was verified by daily visual inspection and weighing. […] On the 11th day, animals were sacrificed by bleeding via heart puncture under carbon dioxide anesthesia. The brains were quickly removed and the bilateral frontal cortex (bregma 1.90 to 1.40 mm) was dissected followed by total RNA extraction. The spleens were also collected in the pilot RT-qPCR experiments.
# Qiagen™ RNeasy mini kits (Valencia, CA) were used following the manufacturer's protocol. Extracted RNA was further purified using Qiagen™ RNeasy Mini columns to eliminate any trace of DNA, and dissolve in nuclease-free water. Purity of the RNA preparation was determined as the 260/280 nm ratio with expected values between 2 and 2.3. Samples were stored at −80° C. before being used for RT-qPCR (pilot experiment), or shipped to the GENEWIZ company on dry ice for library construction and RNA sequencing.
# RNA integrity (RIN) and yield were assessed on an Agilent 2100 Bioanalyzer, and samples with RIN larger than 7 were selected. Prior to the RNA-Seq, ribosomal RNA was depleted from the samples using the RiboMinus™ Human/Mouse Transcriptome Isolation Kit (Thermo Fisher Scientific, Waltham, MA). All samples were sequenced on an Illumina Hi-Seq sequencer. ˜29 million 50 bp single-end reads per sample were obtained. Sequencing adapters were removed using Trimmomatic v.0.33 [Bolger et al 2014]. Quality control at each processing step was performed using the FastQC tool v0.11.2 (quality base calls, GC content distribution, duplicate levels, complexity level) [Andrews 2010]. The Mouse GRCm38/mm10 reference genome was obtained from UCSC Genome Browser Gateway (http://hgdownload.soe.ucsc.edu/goldenPath/mm10/bigZips/chromFa.tar.gz), and the corresponding gene annotation file was obtained from Ensemble (ftp://ftp.ensembl.org/pub/release-83/gtf/mus_musculus/Mus_musculus.GRCm38.83.gtf.gz) on Feb. 20, 2016. Only autosomes, mitochondrial, and sex chromosomes were used. Reads were aligned using the subread v.1.6.2 aligner [Liao et al 2013]. Gene counts were obtained for each sample based on the last […] version of Ensembl transcriptome (v.87) using the featureCounts v.1.2.6 software [Liao et al 2014]. RNA-Seq counts were preprocessed and analyzed for differential expression using the edgeR v.3.24.3 [Robinson et al 2010] R package. P-values for differentially expressed genes were corrected using a false discovery rate (FDR) multiple testing correction method [Benjamini & Hochberg 1995]. Functional enrichment analysis (GO, KEGG) was performed using enrichr [Chen et al 2013]. Enrichment analysis using custom signatures was performed using hypergeometric test in the clusterProfiler v.3.10.1 R package [Yu et al 2012]. […]
smiles,measurement,setting,value
"C[C@@H](NC(=O)c1c(O)n2ccccc2nc1=O)c1ccccc1 [E6R, 4-hydroxy-2-oxo-N—((R)-1-phenylethyl)-3,4-dihydro-2H-pyrido[, 2-a]pyrimidine-3-carboxamide]",fewer transcriptomic changes compared to conditional Hdac2 deletion,50 mg/kg ten days,approximately 80 fold
same,differentially expressed genes between HDAC2 cKO+vehicle and HDAC2 cKO+compound,"HDAC2 cKO mice, 50 mg/kg",Nine
same,genes with altered expression in mouse FC relative to WT+vehicle,"WT mice, 50 mg/kg I.P. daily 10 days, FDR=0.3, p<0.05, Example 9",39 genes
same,genes significantly affected in the FC,"WT mice, 50 mg/kg ten days, Example 11",48 genes
same,Homer1 expression in FC,"WT mice, 50 mg/kg, vs WT+vehicle",downregulated
